This note sets out measurements from patent publication US9365551B2, “2-(benzyloxy) benzamides as LRRK2 kinase inhibitors” (Glaxo Group Limited, priority 2010, dated 2016).

Assay [1] addresses T1, 6His-Tev-LRRK2 (1326-2527) (Homo sapiens, UniProt Q5S007).
T1 construct: A LRRK2 cDNA encoding residues 1326-2527 was received from Dundee University; made in house; host or cells: Spodoptera frugiperda (Sf9) insect cells, baculovirus (pFB-HTb)
T1 sequence (Q5S007 1326-2527): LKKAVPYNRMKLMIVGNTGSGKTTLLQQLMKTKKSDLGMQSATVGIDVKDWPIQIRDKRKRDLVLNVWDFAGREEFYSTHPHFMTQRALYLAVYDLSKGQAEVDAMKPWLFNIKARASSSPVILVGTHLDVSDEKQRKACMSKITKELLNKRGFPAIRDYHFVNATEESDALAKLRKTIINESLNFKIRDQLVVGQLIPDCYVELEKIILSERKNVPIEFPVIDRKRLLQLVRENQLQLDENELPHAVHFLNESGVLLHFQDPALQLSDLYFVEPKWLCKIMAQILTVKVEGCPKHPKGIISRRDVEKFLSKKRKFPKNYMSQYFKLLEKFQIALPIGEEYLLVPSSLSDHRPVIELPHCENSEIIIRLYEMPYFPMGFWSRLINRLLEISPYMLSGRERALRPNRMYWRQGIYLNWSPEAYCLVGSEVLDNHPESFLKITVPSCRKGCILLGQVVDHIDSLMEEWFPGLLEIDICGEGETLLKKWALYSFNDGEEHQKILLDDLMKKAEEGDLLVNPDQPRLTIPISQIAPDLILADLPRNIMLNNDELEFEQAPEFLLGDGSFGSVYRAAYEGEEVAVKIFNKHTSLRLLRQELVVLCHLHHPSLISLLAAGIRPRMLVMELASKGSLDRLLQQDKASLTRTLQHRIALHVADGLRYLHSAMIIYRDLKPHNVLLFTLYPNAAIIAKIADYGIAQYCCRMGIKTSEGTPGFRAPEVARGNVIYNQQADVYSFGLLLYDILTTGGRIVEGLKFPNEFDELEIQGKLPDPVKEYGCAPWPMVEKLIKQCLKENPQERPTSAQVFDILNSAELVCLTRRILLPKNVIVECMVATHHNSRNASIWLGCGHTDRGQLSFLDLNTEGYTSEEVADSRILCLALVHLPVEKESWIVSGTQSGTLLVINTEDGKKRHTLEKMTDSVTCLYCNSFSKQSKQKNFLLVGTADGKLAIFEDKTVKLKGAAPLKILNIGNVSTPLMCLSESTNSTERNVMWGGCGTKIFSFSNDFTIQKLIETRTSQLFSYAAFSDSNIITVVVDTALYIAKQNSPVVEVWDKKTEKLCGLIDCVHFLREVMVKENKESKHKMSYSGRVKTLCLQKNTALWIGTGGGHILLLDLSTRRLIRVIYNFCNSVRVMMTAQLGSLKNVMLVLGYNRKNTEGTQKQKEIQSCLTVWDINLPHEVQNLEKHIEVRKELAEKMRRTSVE
Description: LRRK2 AlphaScreen desensitised protein substrate assay. The settings on record: mean pIC50 of multiple test results. The assay is classed as biochemical. The procedure:
(§1) Compounds of formula (I) may be tested for in vitro kinase activity in accordance with the following assays, using the non natural, in vitro, substrates moesin and the Longer Biotin-LRRKtide. Moesin and a shorter version of the peptide were identified as substrates in Jaleel et al. (2007, Biochem J, 405: 307-317).
(§2) b) 3 μl enzyme solution (80 nM purified recombinant 6His-Tev-LRRK2 (1326-2527) in assay buffer: 50 mM Hepes (pH 7.2), 10 mM MgCl2, 150 mM NaCl, 5% glycerol, 0.0025% triton X-100 and 1 mM DTT) is added to certain wells. 3 μl assay buffer is added to certain wells as a 100% inhibition (no enzyme) control. c) After incubation at room temperature for 30 minutes, 3 μl substrate solution (2 μM Biotin-LRRKtide peptide substrate and ATP at Km in assay buffer) is added to each well. Plates are then incubated for a further 1-2 hours at room temperature (incubation time varies depending upon rate and linearity of reaction with differing enzyme batches). d) 6 μl detection solution (50 nM Streptavidin SureLight® APC (PerkinElmer), 4 nM Eu-W1024 labelled anti-rabbit IgG antibody (PerkinElmer), 1:500 dilution (dilution determined on a batch to batch basis) of Phospho-Ezrin (Thr567)/Radixin (Thr564)/Moesin (Thr558) Polyclonal Antibody (New England Biolabs) and 60 mM EDTA in buffer: 40 mM Hepes (pH 7.2), 150 mM NaCl, 0.03% BSA) is added to each well. Plates are then incubated for a further 2 hours at room temperature before reading on a suitable plate reader (Excitation 330 nm, emission 620 nm (Eu) and 665 nm (APC)). Data is analysed using ActivityBase software (IDBS). LRRK2 AlphaScreen Desensitised Protein Substrate Assay a) 100 nl of a 1:4 serial dilution of test compound with a top final assay concentration of 30 μM is added to certain wells in a low volume 384 well black plate. 100 nl of DMSO is used in certain wells as controls. b) 3 μl enzyme solution (80 nM purified recombinant 6His-Tev-LRRK2 (1326-2527) in assay buffer: 50 mM Hepes (pH 7.2), 10 mM MgCl2, 150 mM NaCl, 5% glycerol, 0.0025% triton X-100 and 1 mM DTT) is added to certain wells. 3 μl assay buffer is added to certain wells as a 100% inhibition (no enzyme) control. c) After incubation at room temperature for 30 minutes, 3 μl substrate solution (200 nM GST-PS-Moesin (400-577) and 2 mM ATP in assay buffer) is added to each well. Plates are then incubated for 20 minutes at room temperature. d) 6 μl detection solution (1:250 dilution of AlphaLisa Protein A Acceptor beads (PerkinElmer), 1:64 dilution of AlphaLisa Gluthathione Donor beads (PerkinElmer) and 1:600 dilution (dilution determined on a batch to batch basis) of Phospho-Ezrin (Thr567)/Radixin (Thr564)/Moesin (Thr558) Polyclonal Antibody (New England Biolabs) in a buffer: 50 mM Hepes (pH 7.5), 250 mM NaCl, 60 mM EDTA, 1% PEG and 0.01% Brij 35) is added to each well. Plates are then incubated for a further 2 hours at room temperature in the dark before reading on an EnVision™ plate reader with AlphaScreen HTS turbo option module and AlphaScreen settings. Data is analysed using ActivityBase software (IDBS). Pharmacological Data
(In general: In Alpha technology, singlet oxygen from a donor bead excites a nearby acceptor bead.)

Assay [2] concerns the target T1, 6His-Tev-LRRK2 (1326-2527). As to the kind of experiment: LRRK2 peptide substrate assay. The class given is biochemical. The conditions noted are these: mean pIC50 of multiple test results. As to the method: as §1
LRRK2 Peptide Substrate Assay
a) 100 nl of a 1:4 serial dilution of test compound with a top final assay concentration of 30 μM is added to certain wells in a low volume 384 well black plate. 100 nl of DMSO is used in certain wells as controls.
as §2

Setting [3] is: stated as threshold, read-out: pIC50 in the LRRK2 alphascreen desensitised protein substrate assay (bounds) (converted).
Setting [4] is: stated as threshold, read-out: pIC50 in the LRRK2 peptide substrate assay (bounds) (converted).
The mark [5] stands for this setting: GST-PS-Moesin (400-577) substrate, 2 mM ATP, read-out: LRRK2 alphascreen desensitized protein substrate assay (pIC50) (converted).
Where [6] appears, read: Biotin-LRRKtide peptide substrate, ATP at Km, read-out: LRRK2 peptide substrate assay (pIC50) (converted).

In the case of `O=C(Nc1ccnnc1)c1cc(C(F)(F)F)c(CN2CCOCC2)cc1OCc1ccccc1` [Example 34, 4-(4-Morpholinylmethyl)-2-[(phenylmethyl)oxy]-N-4-pyridazinyl-5-(trifluoromethyl)benzamide], the IC50 in assay [1] (setting [3]) was at most 25100 nM; in assay [2] (setting [4]), at most 1260 nM.
Regarding `O=C(Nc1cccnc1)c1cc(C(F)(F)F)c(CN2CCCCC2)cc1OCc1ccccc1` [Example 35, 2-[(Phenylmethyl)oxy]-4-(1-piperidinylmethyl)-N-3-pyridinyl-5-(trifluoromethyl)benzamide], the IC50 in assay [1] (setting [3]) is at most 25100 nM; in assay [2] (setting [4]), at most 1260 nM.
On the same counts, the results for `O=C(Nc1ccnnc1)c1cc(C(F)(F)F)c(CN2CCCCC2)cc1OCc1ccccc1` [Example 36, 2-[(Phenylmethyl)oxy]-4-(1-piperidinylmethyl)-N-4-pyridazinyl-5-(trifluoromethyl)benzamide] are at most 25100 nM and at most 1260 nM.
On to `O=C(Nc1cccnc1)c1cc(C(F)(F)F)c(C(=O)N2CCOCC2)cc1OCc1ccccc1` [Example 37, 4-(4-Morpholinylcarbonyl)-2-[(phenylmethyl)oxy]-N-3-pyridinyl-5-(trifluoromethyl)benzamide], for which the IC50 was 794 nM in assay [1] (setting [5]), at most 25100 nM in assay [1] (setting [3]), 39.8 nM in assay [2] (setting [6]) and at most 100 nM in assay [2] (setting [4]).
For the molecule `O=C(Nc1ccnnc1)c1cc(C(F)(F)F)c(C(=O)N2CCOCC2)cc1OCc1ccccc1` [Example 38, 4-(4-Morpholinylcarbonyl)-2-[(phenylmethyl)oxy]-N-4-pyridazinyl-5-(trifluoromethyl)benzamide], the figures for the IC50 in assay [1] (setting [3]) and in assay [2] (setting [4]) were at most 25100 nM and at most 1260 nM, respectively.
In the case of `O=C(Nc1cccnc1)c1cc(C(F)(F)F)c(C(=O)N2CCCCC2)cc1OCc1ccccc1` [Example 39, 2-[(Phenylmethyl)oxy]-4-(1-piperidinylcarbonyl)-N-3-pyridinyl-5-(trifluoromethyl)benzamide], the IC50 in assay [1] (setting [5]) is 316 nM; in assay [1] (setting [3]) it was at most 316 nM; in assay [2] (setting [6]) it was 15.8 nM; in assay [2] (setting [4]) it was at most 100 nM.
With `O=C(Nc1ccnnc1)c1cc(C(F)(F)F)c(C(=O)N2CCCCC2)cc1OCc1ccccc1` [Example 40, 2-[(Phenylmethyl)oxy]-4-(1-piperidinylcarbonyl)-N-4-pyridazinyl-5-(trifluoromethyl)benzamide], the IC50 in assay [1] (setting [3]) was at most 25100 nM; in assay [2] (setting [4]), at most 1260 nM.
On the same counts, the results for `O=C(Nc1cccnc1)c1cc(Cl)c(C(=O)N2CCC(F)(F)C2)cc1OCc1ccccc1` [Example 41, 5-Chloro-4-[(3,3-difluoro-1-pyrrolidinyl)carbonyl]-2-[(phenylmethyl)oxy]-N-3-pyridinylbenzamide] are at most 316 nM and at most 100 nM.
`O=C(Nc1ccnnc1)c1cc(Cl)c(C(=O)N2CCC(F)(F)C2)cc1OCc1ccccc1` [Example 42, 5-Chloro-4-[(3,3-difluoro-1-pyrrolidinyl)carbonyl]-2-[(phenylmethyl)oxy]-N-4-pyridazinylbenzamide]: the IC50 in assay [1] (setting [5]) is 501 nM; in assay [1] (setting [3]), at most 25100 nM; in assay [2] (setting [6]), 50.1 nM; in assay [2] (setting [4]), at most 100 nM.
Consider `Cc1nocc1NC(=O)c1cc(Cl)c(C(=O)N2CCC(F)(F)C2)cc1OCc1ccccc1` [Example 43, 5-Chloro-4-[(3,3-difluoro-1-pyrrolidinyl)carbonyl]-N-(3-methyl-4-isoxazolyl)-2-[(phenylmethyl)oxy]benzamide], for which the results for the IC50 in assay [1] (setting [3]) and in assay [2] (setting [4]) were at most 25100 nM and at most 100 nM, respectively.
Take `O=C(Nc1cccnc1)c1cc(Cl)c(C(=O)N2CCOCC2)cc1OCc1ccccc1` [Example 44, 5-Chloro-4-(4-morpholinylcarbonyl)-2-[(phenylmethyl)oxy]-N-3-pyridinylbenzamide]: the IC50 is 158 nM in assay [1] (setting [5]), at most 316 nM in assay [1] (setting [3]), 31.6 nM in assay [2] (setting [6]) and at most 100 nM in assay [2] (setting [4]).
Turning to `O=C(Nc1cccc(Cl)c1)c1cc(Cl)c(C(=O)N2CCOCC2)cc1OCc1ccccc1` [Example 45, 5-Chloro-N-(3-chlorophenyl)-4-(4-morpholinylcarbonyl)-2-[(phenylmethyl)oxy]benzamide], the IC50 was at most 316 nM in assay [1] (setting [3]) and at most 10 nM in assay [2] (setting [4]).
Taken in the same sequence, the figures for `O=C(Nc1ccnnc1)c1cc(Cl)c(C(=O)N2CCOCC2)cc1OCc1ccccc1` [Example 46, 5-Chloro-4-(4-morpholinylcarbonyl)-2-[(phenylmethyl)oxy]-N-4-pyridazinylbenzamide] were at most 25100 nM and at most 100 nM.
As for `Cn1cc(-c2cc(C(=O)Nc3cccc(F)c3)c(OCc3ccc(F)cc3)cc2C(=O)N2CCOCC2)cn1` [Example 47, 2-((4-fluorobenzyl)oxy)-N-(3-fluorophenyl)-5-(1-methyl-1H-pyrazol-4-yl)-4-(morpholine-4-carbonyl)benzamide], the IC50 in assay [1] (setting [5]) is 126 nM; in assay [1] (setting [3]), at most 316 nM; in assay [2] (setting [6]), 10 nM; in assay [2] (setting [4]), at most 10 nM.
